Measurements as given in patent publication US6894073B2, “Use of diterpene compound as a therapeutic agent of inflammation, immune disease or cancer” (Korea Research Institute of Bioscience and Biotechnology, priority 2000, dated 2005).

What was measured:
Type in all cases: cell-based, murine
TNF-α = experiment: Inhibition of TNF-α production in LPS-stimulated Raw 264.7 cells (enzyme immunometric assay); details: for TNF-α: 1 μg/ml LPS, 16 hours
Protocol: To investigate whether kaurane diterpene compounds obtained in Example 1 can inhibit effectively the production of tumor necrosis factor-α (TNF-α), one of the inflammatory mediator, which confers cytotoxic effect and induces the production of prostaglandin and cytokines, the present inventors measured the amount of TNF-α accumulated in the culture medium of LPS-stimulated murine macrophage cells, which were treated with four kaurane diterpene compounds, kamebanin, kamebacetal A, kamebakaurin, or exisanin A.
In detail, Raw 264.7 cells in DMEM medium were seeded to a 96-well plate at a cell density of 1×10^5 cells/well and were incubated for 3 hours at 37° C. in a 5% CO2 incubator. To each well were added 1 μg/ml of LPS and 3 μg/ml, 0.3 μg/ml, and 0.03 μg/ml concentrations of kaurane diterpene compounds of the present invention and was incubated for 16 hours. After collecting supernatant by centrifugation, the amount of TNF-α in the culture medium was quantified by enzyme immunometric assay.

NF-κB = NF-κB activation, SEAP reporter in LPS-stimulated RAW-NF-AP cells; details: Mus musculus
Protocol: RAW-NF-AP cells, which can be used effectively to detect the NF-κB dependent expression of reporter gene, (Korean Patent Application No. 1999-0006025), were seeded to a 96-well plate at a cell density of 1×10^5 cell/well and were incubated for 3 hours at 37° C. in a 5% CO2 incubator. Thereafter, 1 μg/ml concentration of LPS and 0.03 μg/ml, 0.3 μg/ml, and 3 μg/ml concentrations of kaurane diterpene compounds of the present invention were added to each well and was incubated for 16 hours. After collecting supernatant by centrifugation, the amount of secreted alkaline phosphatase (SEAP) in the culture medium of which expression is regulated by the activation of NF-κB was quantified.

COX-2 mRNA = COX-2 mRNA expression, RT-PCR, LPS-stimulated Raw 264.7 cells
Protocol: Raw 264.7 murine macrophage cells were treated simultaneously with 1 μg/ml concentrations of LPS and 0.1 μg/ml, 0.3 μg/ml, 1 μg/ml, and 3 μg/ml concentrations of kamebakaurin and were incubated for 6 hours at 37° C. in a 5% CO2 incubator. After isolation of total RNA, reverse transcriptase-polymerase chain reaction (RT-PCR) was performed using said RNA as a template and primer pairs represented by SEQ. ID NO. 3 and 4 for iNOS gene and primer pairs represented by SEQ. ID NO. 5 and 6 for COX-2.

prostaglandin E2 = experiment: Inhibition of prostaglandin E2 production in LPS-stimulated Raw 264.7 cells (enzyme immunometric assay); details: for PGE2: 1 μg/ml LPS, 16 hours
Protocol: (§1) To investigate whether kaurane diterpene compounds obtained in Example 1 can inhibit the production of prostaglandin, which induces inflammatory reaction, the present inventors measured the amount of prostaglandin E2 accumulated in the culture medium of LPS-stimulated murine macrophage cells, which were treated with four kaurane diterpene compounds, kamebanin, kamebacetal A, kamebakaurin, or exisanin A.
In detail, Raw 264.7 cells in DMEM medium were seeded to a 96-well plate at a cell density of 1×10^5 cells/well and were incubated for 18 hours. Cyclooxygenase-1, the constitutive rate-determining enzyme of the prostaglandin synthesis was inactivated by incubating for 3 hrs with 500 μM of aspirin and each well was washed two times with PBS (phosphate-buffered saline). To each well were added 1 μg/ml of LPS and 3 μg/ml, 0.3 μg/ml, and 0.03 μg/ml concentrations of kaurane diterpene compounds of the present invention and was incubated for 16 hours. After collecting supernatant by centrifugation, the amount of prostaglandin in the culture medium was quantified by enzyme immunometric assay.

nitric oxide (NO) = experiment: Inhibition of NO production (nitrite, Griess reagent) in LPS-stimulated Raw 264.7 macrophage cells; details: for NO: 1 μg/ml LPS, 24 hours
Protocol: as §1, with “nitric oxide (NO)” for “prostaglandin,”, “apoptosis of the immune and neuron cells,” for “inflammatory reaction,”, “nitrite (NO2)” for “prostaglandin E2”
In detail, Raw 264.7 murine macrophage cells (ATCC TIB-71) in DMEM medium were seeded to 96-well plate at a cell density of 1×10^5 cells/well and incubated for 3 hours at 37° C., 5% CO2 incubator. To induce NO synthesis in the macrophage cell, 1 μg/ml of LPS and 3 μg/ml, 0.3 μg/ml, and 0.03 μg/ml of kaurane diterpene compounds of the present invention were added to the medium and the plate was incubated for 24 hours. The amount of NO2, the final oxidation product of NO induced by the LPS in the medium was measured as followed. After collecting and centrifuging incubated medium, 100 μl of Griess reagent was added into 100 μl of each culture medium. Then, the medium was incubated for ten minutes at room temperature and absorbance at 550 nm wavelength was measured. Griess reagent was prepared by mixing a solution, wherein 1% sulfanilamide was dissolved in 5% phosphoric acid, and a solution of 0.1% naphyhylethylenediamine-HCl by a 1:1 ratio. To measure the amount of standard NO synthesis, NaNO2 was serially diluted and the absorbance was measured after reacting it with Griess reagent. From this, the standard curve for the amount of NO production was obtained. The amount of NO production in the culture medium treated with each compound was estimated using standard curve for NO determination.

[1] = Mus musculus, RAW264.7, LPS-stimulated Raw 264.7 cells

For C=C1C(=O)[C@@]23[C@H](O)C[C@@H]4C(C)(C)CC[C@H](O)[C@@]4(CO)[C@@H]2CC[C@@H]1[C@H]3O [Kamebakaurin, kamebakaurin], the “TNF-α” value (TNF-α; 0.03 μg/ml compound) was 1407.0 ± 255.6 pg/mL, the “TNF-α” value (TNF-α; 0.3 μg/ml compound) was 654.4 ± 29.4 pg/mL and the “TNF-α” value (TNF-α; 3 μg/ml compound) was 29.6 ± 5.3 pg/mL. The inhibition at 0.03 µg/mL (TNF-α; Mus musculus, RAW264.7, 0.03 μg/ml compound, read-out: Inhibition rate (%) of TNF-α production) was 15.9%, the inhibition at 0.3 µg/mL (TNF-α; Mus musculus, RAW264.7, 0.3 μg/ml compound, read-out: Inhibition rate (%) of TNF-α production) was 61.3% and the inhibition at 3 µg/mL (TNF-α; Mus musculus, RAW264.7, 3 μg/ml compound, read-out: Inhibition rate (%) of TNF-α production) was 99.2%. The IC50 (TNF-α; [1]) was 0.53 µM, the inhibition at 0.03 µg/mL (NF-κB; 0.03 μg/ml compound, 1 μg/ml LPS, 16 hours) was 2.5% and the inhibition at 0.3 µg/mL (NF-κB; 0.3 μg/ml compound, 1 μg/ml LPS, 16 hours) was 33.1%. For the same molecule, the inhibition at 3 µg/mL (NF-κB; 3 μg/ml compound, 1 μg/ml LPS, 16 hours) was 96.4%, the IC50 (NF-κB; RAW-NF-AP cells, LPS) was 1.11 µM and the “Expression of COX mRNA” value (COX-2 mRNA; 1 μg/ml) was “inhibited”. The “Expression of COX-2 mRNA” value (COX-2 mRNA; 3 μg/ml, LPS 1 μg/ml, 6 hours) was “completely suppressed”, the “PGE2” value (prostaglandin E2; 0.03 μg/ml compound) was 10.7 ± 1.2 ng/mL and the “PGE2” value (prostaglandin E2; 0.3 μg/ml compound) was 9.2 ± 0.2 ng/mL. The “Inhibition rate (%) of prostaglandin E2 production” value (prostaglandin E2; 3 μg/ml compound) was 95.1%, the “PGE2” value (prostaglandin E2; 3 μg/ml compound) was 1.8 ± 0.4 ng/mL and the inhibition at 0.03 µg/mL (prostaglandin E2; Mus musculus, RAW264.7, 0.03 μg/ml compound, read-out: Inhibition rate (%) of prostaglandin E2 production) was -7.1%. For the same molecule, the inhibition at 0.3 µg/mL (prostaglandin E2; Mus musculus, RAW264.7, 0.3 μg/ml compound, read-out: Inhibition rate (%) of prostaglandin E2 production) was 9.7%, the inhibition at 3 µg/mL (prostaglandin E2; Mus musculus, RAW264.7, 3 μg/ml compound, read-out: Inhibition rate (%) of prostaglandin E2 production) was roughly 95% and the IC50 (prostaglandin E2; [1]) was 2.63 µM. The “NO” value (nitric oxide (NO); 0.03 μg/ml compound) was 29.1 ± 4.2 µM, the “NO” value (nitric oxide (NO); 0.3 μg/ml compound) was 16.1 ± 2.8 µM and the “NO” value (nitric oxide (NO); 3 μg/ml compound) was 3.6 ± 0.7 µM. For the same molecule, the inhibition at 0.03 µg/mL (nitric oxide (NO); Mus musculus, RAW264.7, 0.03 μg/ml compound, read-out: Inhibition rate (%) of NO production) was 44.2%, the inhibition at 0.3 µg/mL (nitric oxide (NO); Mus musculus, RAW264.7, 0.3 μg/ml compound, read-out: Inhibition rate (%) of NO production) was 72.4% and the inhibition at 3 µg/mL (nitric oxide (NO); Mus musculus, RAW264.7, 3 μg/ml compound, read-out: Inhibition rate (%) of NO production) was 99.3%. It also gave an IC50 (nitric oxide (NO); [1]) of 0.15 µM.
